# Experimental data published in publication PMC6712483, “BlsA Is a Low to Moderate Temperature Blue Light Photoreceptor in the Human Pathogen Acinetobacter baumannii” (Frontiers in Microbiology, 2019).
# Target: T1, BlsA (dBlsA, His-BlsA) (Acinetobacter baumannii, UniProt V5VB82)
# T1 construct: gene ycgF; short BLUF protein, recombinant His-tag fusion, purified as in Abatedaga et al. 2017; approximately 20 kDa; residues named Tyr7, Gln51, Trp78, Trp92
# Experiment: cofactor fluorescence emission and anisotropy (steady-state and time-resolved), UV-vis photocycle
# Format: binding
# Conditions: dark-adapted state; cofactor bound on purification; temperature series, compared with free FAD
# T1 sequence (V5VB82 entry or part of it): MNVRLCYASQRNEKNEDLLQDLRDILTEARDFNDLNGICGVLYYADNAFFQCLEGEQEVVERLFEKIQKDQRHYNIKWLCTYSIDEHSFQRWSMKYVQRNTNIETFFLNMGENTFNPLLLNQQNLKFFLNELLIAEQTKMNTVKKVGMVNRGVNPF
structure (smiles),measurement,value
Cc1cc2nc3c(=O)[nH]c(=O)nc-3n(C[C@H](O)[C@H](O)[C@H](O)COP(=O)(O)OP(=O)(O)OC[C@H]3O[C@@H](n4cnc5c(N)ncnc54)[C@H](O)[C@@H]3O)c2cc1C [FAD],"cofactor fluorescence emission and anisotropy (steady-state and time-resolved),",the steady-state anisotropy of the cofactor in dBlsA solutions is strongly decreased
